Among the data in patent publication US20240368133A1, “Compounds for the Treatment of Pain, in Particular, Neuropathic Pain, and/or Other Diseases or Disorders that are Associated with AT2R and/or AT2R Mediated Signaling” (Confo Therapeutics N.V., priority 2021, published 2024) are IC50 and inhibition values, retold here.

Broadly, the IC50 is the concentration at which inhibition is half-maximal.

Assay [1] concerns the target human AT2R fused to Cb23 (Homo sapiens, UniProt P50052). Nature of the assay: Radioligand binding assay, displacement of 125I-[Sar1, Ile8]-Angiotensin II, hAT2R Cb23. Conditions: displacement of 125I-[Sar1, Ile8]-Angiotensin II, human AT2R fused to Cb23, HEK-293 cell membrane preparations; read-out: Binding affinity on hAT2R_Cb23 IC50. The method, boiled down:
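Membranes from HEK-293 cells expressing human AT2R fused to Cb23 were incubated with 0.05 nM 125I-[Sar1, Ile8]-Angiotensin II in 100 μL buffer (50 mM Tris, 5 mM MgCl2, 1 mM EDTA, 0.1% BSA, pH 7.4) for one hour at 25° C. Ligands were tested as eight-point dose-response curves in duplicate, with C21 and Angiotensin II as references.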
On the technique in general: Displacement assays read how much labelled ligand stays bound in the presence of the test substance.

Assay [2] concerns the target human AT1R (Homo sapiens (Human), UniProt P30556). Put plainly: Counterscreen radioligand binding assay, displacement of 125I-[Sar1, Ile8]-Angiotensin II, hAT1R WT. To be noted: for inhibition at 1 µM / inhibition at 10 µM: 125I-[Sar1, Ile8]-Ang II, semi-quantitative score; for inhibition at 1 µM: compound at 1 μM, read-out: % Displaced radioligand at 1 μM; for inhibition at 10 µM: compound at 10 μM, read-out: % Displaced radioligand at 10 μM; for IC50: HEK-293 cell membranes, read-out: Binding affinity On hAT1R IC50. The method, boiled down:
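Compounds displaced 0.05 nM 125I-[Sar1, Ile8]-Ang II from human AT1R in HEK-293 membranes (1 h, 25° C; Tris/MgCl2/EDTA/BSA buffer, pH 7.4). Readout was filtration and scintillation counting, with non-specific binding set by 10 μM [Sar1]-Ang II. Values are % displacement at 1 μM and […], or IC50 from eight-point four-parameter fits.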
A general note: A counterscreen serves to expose hits that act by an unwanted route or on another target.

Bounds are passed on as bounds.

Chain of human AT1R (P30556 whole entry): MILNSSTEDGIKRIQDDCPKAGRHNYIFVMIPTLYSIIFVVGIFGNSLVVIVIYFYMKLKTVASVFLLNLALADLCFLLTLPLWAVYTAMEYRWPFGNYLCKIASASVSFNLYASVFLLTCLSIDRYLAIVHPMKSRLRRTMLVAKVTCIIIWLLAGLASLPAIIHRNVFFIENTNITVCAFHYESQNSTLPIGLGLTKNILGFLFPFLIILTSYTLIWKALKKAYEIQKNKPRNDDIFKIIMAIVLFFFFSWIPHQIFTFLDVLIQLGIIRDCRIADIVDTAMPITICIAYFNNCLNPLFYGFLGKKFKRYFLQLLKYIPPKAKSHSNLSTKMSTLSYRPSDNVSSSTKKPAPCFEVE
Chain of human AT2R fused to Cb23 (P50052 whole entry, looked up, the tested form may be a part): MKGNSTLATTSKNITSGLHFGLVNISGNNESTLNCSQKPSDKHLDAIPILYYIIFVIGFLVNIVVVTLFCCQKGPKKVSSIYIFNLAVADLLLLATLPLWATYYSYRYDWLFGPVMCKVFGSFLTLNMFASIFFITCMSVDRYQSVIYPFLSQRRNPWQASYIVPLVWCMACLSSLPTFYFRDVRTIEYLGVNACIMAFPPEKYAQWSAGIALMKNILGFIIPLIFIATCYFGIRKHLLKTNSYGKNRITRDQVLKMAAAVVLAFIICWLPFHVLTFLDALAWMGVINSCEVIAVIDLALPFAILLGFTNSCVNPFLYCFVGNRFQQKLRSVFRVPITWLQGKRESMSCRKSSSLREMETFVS

For the molecule `CC(C)Cc1ccc(-c2nn[nH]n2)c(N2CCN(Cc3cc(=O)n4ccccc4n3)CC2)c1` [Compound A-76, 2-[[4-[5-isobutyl-2-(2H-tetrazol-5-yl)-phenyl]piperazin-1-yl]methyl]pyrido-[1,2-a]pyrimidin-4-one], the IC50 in assay [1] amounted to 5.57 µM. In assay [2], the inhibition at 1 µM was less than 30% and the inhibition at 10 µM was less than 30%.
As for `CC(C)Cc1ccc(-c2nn[nH]n2)c(N2CCN(Cc3cc4ccccc4n(C)c3=O)CC2)c1` [Compound A-77, 3-[[4-[5-isobutyl-2-(2H-tetrazol-5-yl)-phenyl]piperazin-1-yl]methyl]-1-methyl-quinolin-2-one], in assay [1], the IC50 stood at 2.91 µM. Further, in assay [2], the inhibition at 1 µM was less than 30%, the inhibition at 10 µM is 30 to 50% and the IC50 came out at 13.5 µM.
Take `CC(C)Cc1ccc(-c2nn[nH]n2)c(N2CCN(Cc3nc4ccccc4c(=O)n3C)CC2)c1` [Compound A-78, 2-[[4-[5-isobutyl-2-(2H-tetrazol-5-yl)-phenyl]piperazin-1-yl]methyl]-3-methyl-quinazolin-4-one]: the IC50 in assay [1] stood at 1.5 µM. Besides, in assay [2], the inhibition at 1 µM is less than 30%, the inhibition at 10 µM lay in the range of 30 to 50% and the IC50 turned out to be 12.2 µM.
As for `CC(C)Cc1ccc(-c2nn[nH]n2)c(N2CCN(Cc3nc4ccccc4n(C)c3=O)CC2)c1` [Compound A-79, 3-[[4-[5-isobutyl-2-(2H-tetrazol-5-yl)-phenyl]piperazin-1-yl]methyl]-1-methyl-quinoxalin-2-one], the IC50 in assay [1] was found to be 4.72 µM. Besides, in assay [2], the inhibition at 1 µM was less than 30% and the inhibition at 10 µM was less than 30%.
In the case of `CC(C)Cc1ccc(-c2nn[nH]n2)c(N2CCN(Cc3cnc4ccccn34)CC2)c1` [Compound A-80, 3-[[4-[5-isobutyl-2-(2H-tetrazol-5-yl)-phenyl]piperazin-1-yl]methyl]imid-azo[1,2-a]pyridine], the IC50 in assay [1] was 0.222 µM. For the same molecule, in assay [2], the inhibition at 1 µM was less than 30% and the inhibition at 10 µM is less than 30%.
For the molecule `CC(C)Cc1ccc(-c2nn[nH]n2)c(N2CCN(Cc3nn(C)c4ccccc34)CC2)c1` [Compound A-81, 3-[[4-[5-isobutyl-2-(2H-tetrazol-5-yl)-phenyl]piperazin-1-yl]methyl]-1-methyl-indazole], the IC50 in assay [1] is 1.84 µM. In addition, in assay [2], the inhibition at 1 µM was less than 30% and the inhibition at 10 µM is less than 30%.
As to `CC(C)Cc1ccc(-c2nn[nH]n2)c(N2CCN(Cc3ccc(C(F)(F)F)cn3)CC2)c1` [Compound A-85, 1-[5-isobutyl-2-(2H-tetrazol-5-yl)-phenyl]-4-[[5-(trifluoromethyl)-2-pyridyl]methyl]-piperazine], in assay [1], the IC50 came out at 2.03 µM. In assay [2], the inhibition at 1 µM is less than 30%, the inhibition at 10 µM is less than 30% and the IC50 came out at 45 µM.
For `Cc1nc(CN2CCN(c3cc(CC(C)C)ccc3-c3nn[nH]n3)CC2)no1` [Compound A-86, 3-[[4-[5-isobutyl-2-(2H-tetrazol-5-yl)phenyl]piperazin-1-yl]methyl]-5-methyl-1,2,4-oxadiazole], in assay [1], the IC50 stood at 24.9 µM. For the same molecule, in assay [2], the inhibition at 1 µM was less than 30% and the inhibition at 10 µM was less than 30%.
`Cc1nc(CN2CCN(c3cc(CC(C)C)ccc3-c3nn[nH]n3)CC2)cs1` [Compound A-87]: the IC50 in assay [1] turned out to be 3.81 µM. In assay [2], the inhibition at 1 µM is less than 30% and the inhibition at 10 µM is less than 30%.
In the case of `Cc1cc(CN2CCN(c3cc(CC(C)C)ccc3-c3nn[nH]n3)CC2)on1` [Compound A-89, 5-[[4-[5-isobutyl-2-(2H-tetrazol-5-yl)-phenyl]piperazin-1-yl]methyl]-3-methyl-isoxazole], the IC50 in assay [1] is 9.78 µM. Further, in assay [2], the inhibition at 1 µM is less than 30% and the inhibition at 10 µM was less than 30%.
`CC(C)Cc1ccc(-c2nn[nH]n2)c(N2CCN(Cc3cnccn3)CC2)c1` [Compound A-93, 2-[[4-[5-isobutyl-2-(2H-tetrazol-5-yl)-phenyl]piperazin-1-yl]methyl]pyr-azine]: in assay [1], the IC50 worked out at 6.98 µM. In assay [2], the inhibition at 1 µM was less than 30% and the inhibition at 10 µM was less than 30%.
Regarding `CC(C)Cc1ccc(-c2nn[nH]n2)c(N2CCN(Cc3nncn3C)CC2)c1` [Compound A-94, 1-[5-isobutyl-2-(2H-tetrazol-5-yl)phenyl]-4-[(4-methyl-1,2,4-triazol-3-yl)methyl]piperazine], the IC50 in assay [1] came to 4.77 µM. In assay [2], the inhibition at 1 µM was less than 30%, the inhibition at 10 µM was in the range of 30 to 50% and the IC50 amounted to 14.2 µM.
For `CC(C)Cc1ccc(-c2nn[nH]n2)c(N2CCN(Cc3nccs3)CC2)c1` [Compound A-97, 2-[[4-[5-isobutyl-2-(2H-tetrazol-5-yl)phenyl]piperazin-1-yl]methyl]thiazole], the IC50 in assay [1] was 0.757 µM. Moreover, in assay [2], the inhibition at 1 µM is less than 30% and the inhibition at 10 µM was less than 30%.
On to `CC(C)Cc1ccc(-c2nn[nH]n2)c(N2CCN(Cc3ncco3)CC2)c1` [Compound A-98, 2-[[4-[5-isobutyl-2-(2H-tetrazol-5-yl)-phenyl]piperazin-1-yl]methyl]oxazole], for which, in assay [1], the IC50 stood at 5.69 µM. In addition, in assay [2], the inhibition at 1 µM was less than 30% and the inhibition at 10 µM was less than 30%.
As to `Cc1noc(C)c1CN1CCN(c2cc(CC(C)C)ccc2-c2nn[nH]n2)CC1` [Compound A-101], the IC50 in assay [1] came to 4.48 µM. Besides, in assay [2], the inhibition at 1 µM is less than 30% and the inhibition at 10 µM is less than 30%.
In the case of `CC(C)Cc1ccc(-c2nn[nH]n2)c(N2CCN(Cc3cc(C4CC4)on3)CC2)c1` [Compound A-102, 5-cyclopropyl-3-[[4-[5-isobutyl-2-(2H-tetrazol-5-yl)phenyl]piperazin-1-yl]methyl]isoxazole], the IC50 in assay [1] is 7.07 µM. In assay [2], the inhibition at 1 µM is less than 30% and the inhibition at 10 µM was less than 30%.
In the case of `Cc1cc(CN2CCN(c3cc(CC(C)C)ccc3-c3nn[nH]n3)CC2)n(C)n1` [Compound A-104, 1-[(2,5-dimethyl-pyrazol-3-yl)meth-yl]-4-[5-isobutyl-2-(2H-tetrazol-5-yl)-phenyl]piperazine], the IC50 in assay [1] was 6 µM. Moreover, in assay [2], the inhibition at 1 µM is less than 30% and the inhibition at 10 µM is less than 30%.
As for `CC(C)Cc1ccc(-c2nn[nH]n2)c(N2CCN(Cc3cncn3C)CC2)c1` [Compound A-105, 1-[5-isobutyl-2-(2H-tetrazol-5-yl)phenyl]-4-[(3-methylimidazol-4-yl)methyl]piperazine], the IC50 in assay [1] amounted to 2 µM. In assay [2], the inhibition at 1 µM is less than 30% and the inhibition at 10 µM is less than 30%.
Turning to `Cc1cnc(CN2CCN(c3cc(CC(C)C)ccc3-c3nn[nH]n3)CC2)s1` [Compound A-106, 2-[[4-[5-isobutyl-2-(2H-tetrazol-5-yl)phenyl]piperazin-1-yl]methyl]-5-methyl-thiazole], the IC50 in assay [1] was determined as 0.0355 µM. In addition, in assay [2], the inhibition at 1 µM is less than 30% and the inhibition at 10 µM was less than 30%.
On to `Cc1scnc1CN1CCN(c2cc(CC(C)C)ccc2-c2nn[nH]n2)CC1` [Compound A-111, 4-[[4-[5-isobutyl-2-(2H-tetrazol-5-yl)phenyl]piperazin-1-yl]methyl]-5-methyl-thiazole], for which the IC50 in assay [1] was found to be 5.43 µM. For the same molecule, in assay [2], the inhibition at 1 µM is less than 30% and the inhibition at 10 µM was less than 30%.
Regarding `Cc1cnnc(CN2CCN(c3cc(CC(C)C)ccc3-c3nn[nH]n3)CC2)c1` [Compound A-112, 3-[[4-[5-isobutyl-2-(2H-tetrazol-5-yl)phenyl]piperazin-1-yl]methyl]-5-methyl-pyridazine], the IC50 in assay [1] was 0.697 µM. Besides, in assay [2], the inhibition at 1 µM is less than 30% and the inhibition at 10 µM is less than 30%.
With `Cc1ccc(CN2CCN(c3cc(CC(C)C)ccc3-c3nn[nH]n3)CC2)nn1` [Compound A-113], in assay [1], the IC50 is 7.07 µM. In assay [2], the inhibition at 1 µM is less than 30% and the inhibition at 10 µM is less than 30%.
As for `COc1ccc(CN2CCN(c3cc(CC(C)C)ccc3-c3nn[nH]n3)CC2)nn1` [Compound A-115, 3-[[4-[5-isobutyl-2-(2H-tetrazol-5-yl)-phenyl]piperazin-1-yl]methyl]-6-methoxy-pyridazine], the IC50 in assay [1] is 1.98 µM. Moreover, in assay [2], the inhibition at 1 µM is less than 30% and the inhibition at 10 µM was less than 30%.
Turning to `COc1cc(F)c(-c2nn[nH]n2)c(N2CCN(Cc3nc4ccccc4s3)CC2)c1` [Compound A-116, 2-[[4-[3-fluoro-5-methoxy-2-(2H-tetrazol-5-yl)phen-yl]piperazin-1-yl]-methyl]-1,3-benzo-thiazole], in assay [1], the IC50 was found to be 8.98 µM. Besides, in assay [2], the inhibition at 1 µM is less than 30%, the inhibition at 10 µM lay in the range of 30 to 50% and the IC50 came out at 18.1 µM.
On to `CC(C)Oc1cc(F)c(-c2nn[nH]n2)c(N2CCN(Cc3nc4ccccc4s3)CC2)c1` [Compound A-118, 2-[[4-[3-fluoro-5-isopropoxy-2-(2H-tetrazol-5-yl)phen-yl]piperazin-1-yl]-methyl]-1,3-benzo-thiazole], for which, in assay [1], the IC50 was determined as 1 µM. In addition, in assay [2], the inhibition at 1 µM was less than 30%, the inhibition at 10 µM was less than 30% and the IC50 came to 41.5 µM.
